From patent US8933132B2, “Tricyclic substituted benzenesulfonamide piperazine derivatives as CAV2.2 calcium channel blockers” (Convergence Pharmaceuticals Limited, priority 2011, dated 2015)

Target: T1, hCav2.2 (Homo sapiens, UniProt Q00975)
T1 construct: expressed in transfected cells; plasmids pCIN5-hCav2.2, pCIH-hCav β3, pCIP-α2δ1
Assay: hCav2.2 assay (IonWorks planar array electrophysiology, stable HEK293 cell line)
Format: cell-based
Settings: inhibition of current elicited by the 1st depolarising pulse by 50%; HEK293 cells expressing human Cav2.2 α1B/β3/α2δ1; read-out: tonic pIC50 (converted)
Protocol: Compounds as defined in the first to third aspects may be tested for in vitro biological activity in the hCav2.2 assay in accordance with the following studies:
Stable cell lines expressing the human Cav2.2 α (α1B) subunit, along with the human β3 and α2δ1 auxiliary subunits were created following sequential transfection and selection of human embryonic kidney (HEK293) cells. HEK293 cells were cultured in Dulbecco's modified Eagles media/F12 media (Invitrogen, Cat #041-95750V) containing 10% fetal bovine serum, with added L-glutamine (2 mM; Invitrogen, Cat #25030-024) and non-essential amino acids (5%; Invitrogen, Cat #11140-035). Initially HEK293 cells were transfected with two plasmid vectors for expression of the hCav2.2 α subunit (pCIN5-hCav2.2 which carries a neomycin resistance marker) and the hCav β3 subunit (pCIH-hCav β3 which carries a hygromycin resistance marker). Clonal cell lines were isolated following selection in media supplemented with 0.4 mg ml^−1 Geneticin G418 (Invitrogen, Cat #10131-027) and 0.1 mg ml^−1 hygromycin (Invitrogen, Cat #10687-010). These clonal cell lines were assessed for Cav2.2 α/β3-mediated current expression using the IonWorks planar array electrophysiology technology (described below). A clonal line was identified that gave a reasonable level of functional Cav2.2 α/β3 current expression. This cell line was transfected with a plasmid vector for expression of the human α2δ1 subunit (pCIP-α2δ1 which carries a puromycin resistance marker) and clonal cell lines isolated following selection in media containing 0.62 μg ml^−1 puromycin (Sigma, Cat # P-7255), in addition to 0.4 mg ml^−1 Geneticin G418 and 0.1 mg ml^−1 hygromycin. […]
Currents were recorded at room temperature (21-23° C.) using the IonWorks planar array electrophysiology technology (Molecular Devices Corp.). […] In all experiments, the test pulse protocol was performed in the absence (pre-read) and presence (post-read) of a compound. Pre- and post-reads were separated by a compound addition followed by a 3-3.5 min incubation. […]

T1 sequence (Q00975 whole entry): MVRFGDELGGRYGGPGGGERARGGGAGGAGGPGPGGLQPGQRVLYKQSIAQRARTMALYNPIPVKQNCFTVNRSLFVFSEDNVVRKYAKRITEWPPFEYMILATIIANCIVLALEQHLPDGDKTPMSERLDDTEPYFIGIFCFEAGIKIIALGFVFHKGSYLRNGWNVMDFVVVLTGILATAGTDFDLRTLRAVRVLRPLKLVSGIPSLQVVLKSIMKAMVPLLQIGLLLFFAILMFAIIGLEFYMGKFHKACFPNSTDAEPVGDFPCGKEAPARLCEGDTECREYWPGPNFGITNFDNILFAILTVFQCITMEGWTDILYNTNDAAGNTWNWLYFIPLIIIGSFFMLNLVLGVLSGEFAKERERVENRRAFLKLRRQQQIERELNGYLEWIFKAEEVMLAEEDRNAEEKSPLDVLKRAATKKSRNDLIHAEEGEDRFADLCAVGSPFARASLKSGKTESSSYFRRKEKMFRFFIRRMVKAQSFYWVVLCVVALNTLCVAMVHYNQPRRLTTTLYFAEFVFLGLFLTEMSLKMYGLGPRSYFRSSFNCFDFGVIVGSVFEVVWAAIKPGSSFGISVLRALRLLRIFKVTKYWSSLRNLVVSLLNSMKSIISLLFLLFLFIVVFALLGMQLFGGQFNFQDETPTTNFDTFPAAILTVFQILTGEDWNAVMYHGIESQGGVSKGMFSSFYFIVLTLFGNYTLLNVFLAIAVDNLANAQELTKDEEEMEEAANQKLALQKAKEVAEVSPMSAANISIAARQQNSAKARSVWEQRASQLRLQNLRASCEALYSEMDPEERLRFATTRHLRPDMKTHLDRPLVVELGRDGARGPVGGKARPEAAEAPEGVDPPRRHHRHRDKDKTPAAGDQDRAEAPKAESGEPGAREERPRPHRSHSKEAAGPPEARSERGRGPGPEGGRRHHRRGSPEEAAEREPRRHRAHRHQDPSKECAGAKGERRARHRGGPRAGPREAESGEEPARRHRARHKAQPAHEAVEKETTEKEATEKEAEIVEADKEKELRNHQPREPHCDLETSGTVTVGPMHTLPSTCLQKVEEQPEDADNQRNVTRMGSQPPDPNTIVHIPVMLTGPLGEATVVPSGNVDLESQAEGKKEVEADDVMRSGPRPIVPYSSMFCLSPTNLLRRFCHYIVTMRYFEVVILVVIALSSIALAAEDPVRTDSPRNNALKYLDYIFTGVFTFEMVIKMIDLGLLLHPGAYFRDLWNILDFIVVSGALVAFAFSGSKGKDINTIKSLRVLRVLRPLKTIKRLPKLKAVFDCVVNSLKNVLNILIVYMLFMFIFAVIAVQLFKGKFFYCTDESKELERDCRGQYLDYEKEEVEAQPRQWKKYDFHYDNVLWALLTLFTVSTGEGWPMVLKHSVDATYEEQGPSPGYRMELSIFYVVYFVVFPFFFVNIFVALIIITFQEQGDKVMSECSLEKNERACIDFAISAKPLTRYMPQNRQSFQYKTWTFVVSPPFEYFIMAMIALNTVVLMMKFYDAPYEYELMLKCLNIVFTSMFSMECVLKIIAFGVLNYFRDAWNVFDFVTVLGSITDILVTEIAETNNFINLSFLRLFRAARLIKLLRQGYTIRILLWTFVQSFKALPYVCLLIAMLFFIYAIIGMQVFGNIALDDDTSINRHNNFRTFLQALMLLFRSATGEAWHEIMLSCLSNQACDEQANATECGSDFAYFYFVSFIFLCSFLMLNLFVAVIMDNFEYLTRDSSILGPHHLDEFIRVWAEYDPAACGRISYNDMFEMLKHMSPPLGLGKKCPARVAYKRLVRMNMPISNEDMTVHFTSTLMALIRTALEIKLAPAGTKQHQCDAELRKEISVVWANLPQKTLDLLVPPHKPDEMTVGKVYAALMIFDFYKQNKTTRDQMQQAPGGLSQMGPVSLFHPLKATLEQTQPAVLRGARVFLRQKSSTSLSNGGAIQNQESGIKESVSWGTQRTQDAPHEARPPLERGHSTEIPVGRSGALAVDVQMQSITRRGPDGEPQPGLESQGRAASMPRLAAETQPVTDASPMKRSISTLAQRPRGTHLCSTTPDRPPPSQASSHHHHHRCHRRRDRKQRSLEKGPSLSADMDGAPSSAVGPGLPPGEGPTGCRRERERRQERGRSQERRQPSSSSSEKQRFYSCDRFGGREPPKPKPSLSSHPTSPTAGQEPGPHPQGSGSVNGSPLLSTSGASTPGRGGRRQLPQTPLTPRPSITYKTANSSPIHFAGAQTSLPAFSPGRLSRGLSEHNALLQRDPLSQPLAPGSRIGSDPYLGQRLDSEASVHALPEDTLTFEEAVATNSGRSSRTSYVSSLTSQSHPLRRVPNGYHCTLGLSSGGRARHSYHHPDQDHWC

Structure (SMILES)	IC50 [µM]
Cc1cc(C(F)(F)F)ccc1S(=O)(=O)N1CCN2C(=O)c3cccnc3C2C1 (single isomer, unassigned) [24/25 (slower running enantiomer)]	≤ 31.6
Cc1ccc2c(n1)C1CN(S(=O)(=O)c3ccc(OC(C)C)cc3)CCN1C2=O (stereo not drawn) [Compound 2, 2-Methyl-9-({4-[(1-methylethyl)oxy]phenyl}sulfonyl)-8,9,10,10a-tetrahydropyrido[2′,3′:3,4]pyrrolo-[1,2-a]pyrazin-5(7H)-one]	100
Cc1ccc2c(n1)C1CN(S(=O)(=O)c3ccc(C(F)(F)F)cc3C)CCN1C2=O (stereo not drawn) [Compound 18, 2-Methyl-9-{[2-methyl-4-(trifluoromethyl)phenyl]sulfonyl}-8,9,10,10a-tetrahydropyrido[2′,3′:3,4]pyrrolo-[1,2-a]pyrazin-5(7H)-one]	≤ 31.6
